Results as given in the supplement of paper PMC8149375.

Tests used:
Conditions in all cases: treatment: drug alone; 5 days
ACHN [1] = assay: AUC of dose-response viability curve, drug alone (arbitrary (AUC of normalised viability)); higher = less growth inhibition
Description: (§1)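 Primary HTS: 8 RCC cell lines treated with 8 doses (up to 10 uM) of each library drug alone for 5 days; viability read by CellTiter-Glo and normalised to DMSO. GI50 was fitted with XLfit (4-parameter), AUC is the area under the dose-response curve, and minimum viability is the lowest fraction of DMSO viability across doses.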

CAKI-1 [2] = assay: as above
Description: as §1

A498 [3] = assay: as above
Description: as §1

786-O [4] = assay: as above
Description: as §1

TK-10 [5] = assay: as above
Description: as §1

UO-31 [6] = assay: as above
Description: as §1

SN12C [7] = assay: as above
Description: as §1

769-P [8] = assay: as above
Description: as §1

ACHN [9] = assay: GI50, drug alone; higher = less potent
Description: as §1

CAKI-1 [10] = assay: GI50, drug alone; higher = less potent
Description: as §1

A498 [11] = assay: GI50, drug alone; higher = less potent
Description: as §1

786-O [12] = assay: GI50, drug alone; higher = less potent
Description: as §1

TK-10 [13] = assay: GI50, drug alone; higher = less potent
Description: as §1

UO-31 [14] = assay: GI50, drug alone; higher = less potent
Description: as §1

SN12C [15] = assay: GI50, drug alone; higher = less potent
Description: as §1

769-P [16] = assay: GI50, drug alone; higher = less potent
Description: as §1

ACHN [17] = assay: minimum viability across doses, drug alone, relative to DMSO (fraction); higher = less growth inhibition
Description: as §1

CAKI-1 [18] = assay: as above
Description: as §1

A498 [19] = assay: as above
Description: as §1

786-O [20] = assay: as above
Description: as §1

TK-10 [21] = assay: as above
Description: as §1

UO-31 [22] = assay: as above
Description: as §1

SN12C [23] = assay: as above
Description: as §1

769-P [24] = assay: as above
Description: as §1

Compound	GI50, drug alone (ACHN [9])	GI50, drug alone (786-O [12])	AUC of dose-response viability curve (ACHN [1])	AUC of dose-response viability curve (CAKI-1 [2])	AUC of dose-response viability curve (A498 [3])	AUC of dose-response viability curve (786-O [4])	AUC of dose-response viability curve (TK-10 [5])	AUC of dose-response viability curve (UO-31 [6])	AUC of dose-response viability curve (SN12C [7])	AUC of dose-response viability curve (769-P [8])	GI50, drug alone (CAKI-1 [10])	GI50, drug alone (A498 [11])	GI50, drug alone (TK-10 [13])	GI50, drug alone (UO-31 [14])	GI50, drug alone (SN12C [15])	GI50, drug alone (769-P [16])	minimum viability across doses (ACHN [17])	minimum viability across doses (CAKI-1 [18])	minimum viability across doses (A498 [19])	minimum viability across doses (786-O [20])	minimum viability across doses (TK-10 [21])	minimum viability across doses (UO-31 [22])	minimum viability across doses (SN12C [23])	minimum viability across doses (769-P [24])
CCc1cccc(CC)c1NC(=O)N1Cc2[nH]nc(NC(=O)c3ccc(N4CCN(C)CC4)cc3)c2C1	3.39 µM	0.915 µM	2.85	2.76	3.29	2.21	2.92	3.85	2.76	3.41	2.92 µM	> 10 µM	5.38 µM	> 10 µM	2.15 µM	> 10 µM	0.233	0.262	0.679	0.0395	0.336	0.811	0.238	0.87
CC(C)(C)c1cnc(CSc2cnc(NC(=O)C3CCNCC3)s2)o1	0.258 µM	0.134 µM	1.76	2.39	1.58	1.5	2.22	1.87	1.69	2.51	0.558 µM	0.147 µM	0.501 µM	0.269 µM	0.149 µM	1.44 µM	0.00527	0.0689	0.00845	0.0038	0.156	0.0096	0.012	0.0214
Oc1ccc(-c2nc(-c3ccc(F)cc3)c(-c3ccncc3)[nH]2)cc1	9.97 µM	> 10 µM	2.91	3.25	4.09	3.04	2.88	4.47	3.4	3.41	> 10 µM	> 10 µM	> 10 µM	> 10 µM	> 10 µM	> 10 µM	0.473	0.637	1.02	0.65	0.659	0.308	0.936	0.904
NC(=O)c1ccc(-c2nc(-c3ccc4c(c3)OCO4)c(-c3ccccn3)[nH]2)cc1	> 10 µM	> 10 µM	3.21	3.3	3.96	2.72	2.89	4.85	2.86	3.26	> 10 µM	> 10 µM	> 10 µM	> 10 µM	> 10 µM	> 10 µM	0.564	0.723	0.906	0.578	0.613	0.941	0.556	0.838
O=C1NCCc2[nH]c(-c3ccncc3)cc21	1.67 µM	0.539 µM	2.7	3.31	3.22	2.22	2.88	3.43	3.27	3.24	4.96 µM	3.53 µM	3.62 µM	2.46 µM	3.68 µM	> 10 µM	0.0193	0.12	0.0125	0.00414	0.188	0.00654	0.0279	0.75
O=C1c2ccccc2-c2n[nH]c3cccc1c23	8.89 µM	> 10 µM	3.44	3.09	4.19	2.81	3.07	3.08	3.37	3.24	6.06 µM	> 10 µM	> 10 µM	> 10 µM	> 10 µM	> 10 µM	0.421	0.251	0.999	0.545	0.562	0.52	0.822	0.799
Cc1[nH]c(/C=C2\C(=O)Nc3ccc(S(=O)(=O)Cc4c(Cl)cccc4Cl)cc32)c(C)c1C(=O)N1CCC[C@@H]1CN1CCCC1	3.83 µM	4.16 µM	3.18	3.17	3.88	2.86	3.12	4.41	2.93	2.89	3.83 µM	8.15 µM	4.44 µM	> 10 µM	4.02 µM	4.02 µM	0.00233	0.00618	0.0127	0.0112	0.00282	0.0156	0.00551	0.00582
N#CC[C@H](C1CCCC1)n1cc(-c2ncnc3[nH]ccc23)cn1	> 10 µM	8.76 µM	3.14	3.82	4.75	3.06	3.2	4.92	3.53	3.4	> 10 µM	> 10 µM	> 10 µM	> 10 µM	> 10 µM	> 10 µM	0.779	0.965	1.24	0.433	0.833	1.25	0.945	0.876
CS(=O)c1ccc(-c2nc(-c3ccc(F)cc3)c(-c3ccncc3)[nH]2)cc1 (stereo not given)	0.142 µM	> 10 µM	2.51	3.69	4.51	3.47	2.98	4.33	3.43	3.37	> 10 µM	> 10 µM	> 10 µM	> 10 µM	> 10 µM	> 10 µM	0.577	0.931	1.12	0.774	0.713	1.06	0.84	0.892
CN(C)CCOc1ccc(-c2nc(-c3ccncc3)c(-c3ccc4c(c3)CC/C4=N/O)[nH]2)cc1	8.61 µM	7.91 µM	3.51	3.77	4.26	2.94	3.35	5.65	3.3	3.44	9.32 µM	8.04 µM	> 10 µM	> 10 µM	> 10 µM	8.71 µM	0.167	0.308	0.0435	0.0071	0.575	0.573	0.706	0.177
CC(C)CC(=O)Nc1n[nH]c2c1CN(C(=O)C1CCN(C)CC1)C2(C)C	0.276 µM	0.12 µM	1.92	2.75	2.94	1.4	2.7	3	1.9	3.01	1.77 µM	1.48 µM	3.08 µM	1.06 µM	0.262 µM	4.34 µM	0.0324	0.0863	0.00722	0.0023	0.174	0.00653	0.0129	0.189
OCc1ccc(-c2ccc(-c3ccc(CO)s3)o2)s1	0.18 µM	0.0275 µM	1.76	0.628	3.4	1.04	1.03	2.33	2.29	1.27	0.0112 µM	7.46 µM	0.0294 µM	0.389 µM	0.582 µM	0.0427 µM	0.0234	0.00454	0.419	0.00113	0.032	0.0063	0.0662	0.056

Further lines, with some results ahead:

GI50, drug alone (ACHN [9])	GI50, drug alone (786-O [12])	Compound	AUC of dose-response viability curve (ACHN [1])	AUC of dose-response viability curve (CAKI-1 [2])	AUC of dose-response viability curve (A498 [3])	AUC of dose-response viability curve (786-O [4])	AUC of dose-response viability curve (TK-10 [5])	AUC of dose-response viability curve (UO-31 [6])	AUC of dose-response viability curve (SN12C [7])	AUC of dose-response viability curve (769-P [8])	GI50, drug alone (CAKI-1 [10])	GI50, drug alone (A498 [11])	GI50, drug alone (TK-10 [13])	GI50, drug alone (UO-31 [14])	GI50, drug alone (SN12C [15])	GI50, drug alone (769-P [16])	minimum viability across doses (ACHN [17])	minimum viability across doses (CAKI-1 [18])	minimum viability across doses (A498 [19])	minimum viability across doses (786-O [20])	minimum viability across doses (TK-10 [21])	minimum viability across doses (UO-31 [22])	minimum viability across doses (SN12C [23])	minimum viability across doses (769-P [24])
0.973 µM	1.24 µM	COc1cc(Nc2ncc(F)c(Nc3ccc4c(n3)N(COP(=O)([O-])[O-])C(=O)C(C)(C)O4)n2)cc(OC)c1OC.[Na+].[Na+]	2.42	2.49	3.85	2.1	2.53	4	2.73	3.1	1.02 µM	> 10 µM	5.18 µM	9.63 µM	3.32 µM	5.08 µM	0.0693	0.035	0.898	0.125	0.418	0.0974	0.303	0.119
4.72 µM	< 0.003 µM	CNC(=O)c1ccc(C)c(-n2c(C)cc(OCc3ccc(F)cc3F)c(Br)c2=O)c1	2.53	3.1	4.54	1.88	2.51	3.74	2.94	3.15	> 10 µM	> 10 µM	> 10 µM	> 10 µM	> 10 µM	> 10 µM	0.464	0.705	1.12	0.437	0.596	0.835	0.738	0.765
> 10 µM	> 10 µM	Cc1cccc(-c2nc(C(C)(C)C)[nH]c2-c2ccc3nccnc3c2)n1	3.38	3.35	3.88	2.63	2.9	5.79	3.02	3.25	> 10 µM	9.45 µM	> 10 µM	> 10 µM	5.55 µM	> 10 µM	0.87	0.603	0.302	0.589	0.676	0.569	0.21	0.795
0.0547 µM	5.22 µM	Cc1[nH]c(/C=C2/C(=O)Nc3ccc(S(=O)(=O)N(C)c4cccc(Cl)c4)cc32)c(C)c1C(=O)N1CCN(C)CC1	2.06	3.3	3.89	2.76	3.36	4.97	3.01	3.4	8.22 µM	> 10 µM	> 10 µM	> 10 µM	8.02 µM	> 10 µM	0.247	0.425	0.916	0.265	0.753	1.15	0.412	0.763
> 10 µM	> 10 µM	O=C1NC(=O)C(c2ccccc2[N+](=O)[O-])=C1Nc1ccc(O)c(Cl)c1	3.39	3.4	3.58	2.33	3.02	4	3.05	3.29	> 10 µM	> 10 µM	> 10 µM	> 10 µM	> 10 µM	> 10 µM	0.879	0.869	0.922	0.559	0.804	0.634	0.802	0.898
> 10 µM	> 10 µM	CCn1c(N)c(C(=O)NC)c(=O)c2ccc(C#C[C@@](C)(O)COC)nc21	3.52	3.62	3.88	3.31	3.45	4.24	3.44	3.92	> 10 µM	> 10 µM	> 10 µM	> 10 µM	> 10 µM	> 10 µM	0.909	0.845	0.887	0.869	0.9	0.992	0.849	1.02
0.0953 µM	0.366 µM	CNC(=O)c1nn(C)c2c1C(C)(C)Cc1cnc(Nc3ccc(N4CCN(C)CC4)cc3)nc1-2	1.53	1.81	3.76	2.22	2.06	2.64	2.54	2.48	0.174 µM	4.8 µM	0.311 µM	1.33 µM	0.957 µM	1 µM	0.0129	0.0591	0.0273	0.00535	0.177	0.0155	0.0145	0.0249
> 10 µM	> 10 µM	Cn1cc(C2=C(c3ccc(Cl)cc3Cl)C(=O)NC2=O)c2ccccc21	3.26	0.987	3.79	3.26	3.26	3.98	3.43	3.2	> 10 µM	> 10 µM	> 10 µM	> 10 µM	> 10 µM	8.53 µM	0.821	0.839	0.907	0.814	0.629	0.801	0.908	0.386
